Columns and labels:
[1] = test system: C33a cells; assay: Annexin V/PI staining by flow cytometry; format: cell-based
Procedure: (§1) For the viability assays, 20,000 C33a, HeLa, or siHA cells were plated in white 96 well flat bottom plates. The cells were treated with compounds at concentrations from 0.5 to 30 μM for 48 hrs. After incubation, Cell Titer Glo (Promega) was added to the cells and luminescence read in a Tecan II plate reader. For annexin V and PI staining, 500,000 C33a cells were treated with inhibitor for 24 hrs. The cells were stained with Annexin V-FITC and PI according to eBioscience manufacturer’s instructions and analyzed by flow cytometry.

[2] = target: T1, p53 (Homo sapiens, UniProt P04637, R273C); assay: Nuclear/cytoplasmic fractionation and Western analysis of p53; format: cell-based; settings: C33a cells, 6 hrs, Western
T1 construct: endogenous in cells; host or cells: C33a
Procedure: For nuclear/cytoplasmic fractionation, 1 × 10^7 C33a cells were treated with 30 μM compound for 6 hrs. The cells were washed with PBS and lysed in 1000 μL of cytoplasmic extraction buffer (10 mM KCl, 10 mM HEPES, pH 7.9, 0.1 mM EDTA, 1 mM dithiothreitol) and incubated on ice for 20 min. 50 μL of 10% NP-40 was added to each lysate, vortexed and then centrifuged at 12,000 × g for 10 min. The cytosolic fraction was collected and the pellet containing the nuclei suspended in 50 μL of nuclear extraction buffer (0.4 M NaCl, 20 mM HEPES, pH 7.9, 1 mM EDTA). The nuclear fraction was incubated for 30 min on ice. The samples were spun at 14,000 × g for 10 min and the supernatants were collected. To concentrate the cytoplasmic fraction, 500 μL methanol, and 200 μL chloroform were added and the samples were vortexed, centrifuged for 10 min at 14,000 × g, and the upper and lower layer were discarded. The solid interphase was collected and suspended in 50 μL of lysis buffer. Equal cell equivalents were loaded on a gel and electrophoresed. For whole cell lysates, C33a cells were lysed with a modified RIPA buffer and subjected to SDS-PAGE electrophoresis. The gels were transferred to nitrocellulose and blots probed with antibodies for p53 (Santa Cruz, antibody FL-303), lamin A/C, and calnexin (Santa Cruz Biotechnology).

[3] = test system: p53-Luc; assay: In vitro E6 degradation assay (recombinant E6 with p53-Luc lysates); format: biochemical; settings: 50 ng recombinant E6, 10 μM compound, C33a lysates, 6 hours
Procedure: For the in vitro assay, E6 was cloned into the pMAL vector in frame with the maltose binding protein. The E6 was expressed in bacteria and purified on amylose column. C33a cells were transfected with p53-Luc and incubated overnight. 50 ng recombinant E6 was incubated with 10 μM compound and C33a lysates for 6 hours at 30 degrees. We measured luciferase activity after 30 minutes. For the trypsin and chymotrypsin assay, C33a cells were incubated for 2 hours with the indicated compounds at 10 μM and assessed for chymotrypsin and trypsin activity using Proteasome-Glo assay (Promega). For the in vivo degradation assay, C33a cells expressing Ad-TE6 and Ad-p53 or expressing Ad-TE7 and Ad-Rb-Ren were treated for 8 hours with compounds. After incubation, cells were lysed and luciferase activity measured and p53 levels measured by Western blot.

[4] = test system: HeLa cells; assay: Cell viability (Cell Titer Glo), HeLa; format: cell-based
Procedure: as §1

[5] = test system: HCT116 cells; assay: Cell viability, HCT116 (wtHCT116 and p53-null mutHCT116); format: cell-based
[6] = test system: proteasome chymotrypsin-like activity; assay: Proteasome-Glo chymotrypsin-like activity; format: cell-based; settings: C33a cells, 2 hrs, 10 μM or 30 μM
[7] = test system: PUMA; assay: PUMA transcription by qRT-PCR; format: cell-based; settings: 30 μM, 8h
Source text: RNA from C33a and HeLa was isolated by Trizol and reverse transcribed using the first strand synthesis kit from NEB. Primers for p53, GAPDH and PUMA were used for quantitative real-time PCR (qRT-PCR). Primer sequences include: PUMA (forward primer: CTCAACGCACAGTACGAG and reverse primer: […]), FAS (forward primer: TCTGCCATAAGCCCTGT and reverse primer: GTCTGTGTACTCCTTCCCT), p21 (forward primer: […] and reverse primer: […]), and BAX (forward primer: […] and reverse primer: […]). ΔΔCt values were determined for PUMA using GAPDH to normalize data. Bio-rad SYBR green was used for the amplification and detection of the PCR products on an iCycler (Bio-rad).

[8] = target: E6 (Human papillomavirus type 16, UniProt P03126); settings: SPR
Sequence of E6 (P03126 whole entry): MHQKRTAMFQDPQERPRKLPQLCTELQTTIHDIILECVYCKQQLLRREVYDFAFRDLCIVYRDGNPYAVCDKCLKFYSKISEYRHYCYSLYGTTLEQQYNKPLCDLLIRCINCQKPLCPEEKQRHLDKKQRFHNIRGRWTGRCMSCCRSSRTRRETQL
Procedure: p53 or E6 (R&D systems) were suspended in 10 mM sodium acetate pH 5.0 and amine linked to a Biacore CM5 chip (GE systems). Free reactive amines were then blocked with ethanolamine. Compound 4 was diluted in HBS P buffer (GE systems) at concentrations 1–30 μM and run over the chip. The association time was monitored for 300s and disassociation time for 1000 sec. After each run, the chip was regenerated using 10 mM glycine pH 3.0. The sensograms were fit to a one-ligand model to determine the Ka and Kd.

[9] = target: T2, p73 (Homo sapiens, UniProt O15350); assay: p73 nuclear accumulation by Western analysis; format: cell-based; settings: mutHCT116 cells, 6h
T2 construct: endogenous in cells; host or cells: HCT116 (p53-null mutHCT116 and wtHCT116)
T2 sequence (O15350 1-636): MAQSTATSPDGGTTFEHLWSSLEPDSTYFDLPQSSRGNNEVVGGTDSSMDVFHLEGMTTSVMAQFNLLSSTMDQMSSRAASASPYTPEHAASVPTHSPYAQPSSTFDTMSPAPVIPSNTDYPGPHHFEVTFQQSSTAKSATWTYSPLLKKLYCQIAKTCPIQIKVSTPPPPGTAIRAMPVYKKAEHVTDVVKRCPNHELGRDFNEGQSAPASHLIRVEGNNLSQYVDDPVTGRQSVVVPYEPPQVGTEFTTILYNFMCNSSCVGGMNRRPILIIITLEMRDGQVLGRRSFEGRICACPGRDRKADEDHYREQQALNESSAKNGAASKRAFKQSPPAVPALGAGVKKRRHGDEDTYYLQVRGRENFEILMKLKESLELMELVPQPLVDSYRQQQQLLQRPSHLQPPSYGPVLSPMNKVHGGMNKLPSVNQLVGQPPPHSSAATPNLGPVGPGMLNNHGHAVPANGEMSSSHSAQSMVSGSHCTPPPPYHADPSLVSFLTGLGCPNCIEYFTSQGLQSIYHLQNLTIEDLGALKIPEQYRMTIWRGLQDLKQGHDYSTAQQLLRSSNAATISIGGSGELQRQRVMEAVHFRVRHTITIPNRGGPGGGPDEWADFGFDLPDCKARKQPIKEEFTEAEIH

For `COc1ccc(/C=C/c2ccc3cccc(O)c3n2)cc1OC` [compound 4], the “apoptotic and necrotic cells” value [1] was “increased both the number of apoptotic and necrotic cells”, the “nuclear accumulation of p53 in nuclear fraction compared to vehicle” value [2] was “higher levels of nuclear accumulation of p53” and the “restoration of p53 levels in vitro” value [3] was “restored p53 levels in vitro to similar levels as the proteasome inhibitor MG132”. For the same molecule, the “cell viability (Fig 5D)” value ([4]; HeLa) was “decreased viability”, the IC50 ([4]; HeLa cells, 48 hrs, Cell Titer Glo) was 4.5 µM and the “cell viability at 30 μM” value ([4]; HeLa, 30 μM, 48h) was “decreased viability”. For the same molecule, the “viability of mutHCT116 cells relative to wtHCT116 cells” value ([5]; 10 μM, percent viability mutHCT116 divided by wtHCT116) was 2.5±0.5 fold, the “cell viability (Fig 5D)” value ([5]; HCT116, wild type p53) was “decreased viability” and the chymotrypsin-like proteasome activity [6] was “did not significantly reduce”. For the same molecule, the PUMA transcription upregulation ([7]; C33a cells) was 2.76±0.29 fold, the PUMA transcription upregulation ([7]; HeLa cells) was 2.04±0.85 fold and the “fold lesser affinity for E6 than for p53” value ([8]; E6 versus p53) was 16 fold. For the same molecule, the Kd ([8]; read-out: KD for E6, recombinant E6) was 3.2 ± 1 µM and the p73 nuclear accumulation [9] was “did not increase p73 nuclear accumulation”.
